One compound from ChEMBL document CHEMBL1151358, “Doridosine, 1-methylisoguanosine, from Anisodoris nobilis; structure, pharmacological properties and synthesis” (1981) can be followed below.

The term inhibition denotes the percentage by which the read-out fell short of the control. Lower therefore signals a response near the control.

The nature of assay [1]: Inhibition of guinea pig atrial contraction at 20 uM in presence of 10 uM/L theophylline. It is filed as functional, Cavia porcellus, Cardiac atrium.
Assay [2] can be described thus: Inhibition of guinea pig atrial contraction at 5 uM in presence of 100 uM/L theophylline. It is filed as functional, Cavia porcellus, Cardiac atrium.
Assay [3] is described as follows: Inhibition of guinea pig atrial contraction at 5 uM. The assay is classed as functional. The conditions noted are these: Cavia porcellus, Cardiac atrium.
Assay [4] can be described thus: Inhibition of guinea pig atrial contraction at 5 uM in presence of 10 uM/L theophylline. The assay is classed as functional, Cavia porcellus, Cardiac atrium.
Assay [5] is described as follows: Inhibition of guinea pig atrial contraction at 14 uM. The assay is classed as functional. As to conditions: Cavia porcellus, Cardiac atrium.
A short description of assay [6]: Inhibition of guinea pig atrial contraction at 20 uM in presence of 100 uM/L theophylline. It is filed as functional, Cavia porcellus, Cardiac atrium.
Assay [7] in a line: Inhibition of guinea pig atrial contraction at 20 uM. The conditions noted are these: Cavia porcellus, Cardiac atrium. The assay is classed as functional.

Consider `Cn1c(=O)[nH]c2c(ncn2[C@@H]2O[C@H](CO)[C@@H](O)[C@H]2O)c1=N`, for which the “inhibition (INH)” value amounted to 95% in assay [1], 64% in assay [2], 83% in assay [4] and 82% in assay [6]. Moreover, in assay [3], 5 µM produced 65% inhibition. The compound further registered an inhibition at 14 µM in assay [5] of 50%. Moreover, the inhibition at 20 µM in assay [7] was 45.2%.
